In patent US8163732B2, “Tricyclic heteroaryl compounds useful as inhibitors of Janus kinase” (Vertex Pharmaceuticals Incorporated, priority 2005, dated 2012):

Assays:
JAK-2 = JAK-2 (Homo sapiens, UniProt O60674); test: JAK-2 inhibition assay; type: biochemical
JAK-3 = biological target: T1, JAK-3 (Homo sapiens, UniProt P52333); test: JAK-3 inhibition assay; type: biochemical
T1 sequence (P52333 1-1124): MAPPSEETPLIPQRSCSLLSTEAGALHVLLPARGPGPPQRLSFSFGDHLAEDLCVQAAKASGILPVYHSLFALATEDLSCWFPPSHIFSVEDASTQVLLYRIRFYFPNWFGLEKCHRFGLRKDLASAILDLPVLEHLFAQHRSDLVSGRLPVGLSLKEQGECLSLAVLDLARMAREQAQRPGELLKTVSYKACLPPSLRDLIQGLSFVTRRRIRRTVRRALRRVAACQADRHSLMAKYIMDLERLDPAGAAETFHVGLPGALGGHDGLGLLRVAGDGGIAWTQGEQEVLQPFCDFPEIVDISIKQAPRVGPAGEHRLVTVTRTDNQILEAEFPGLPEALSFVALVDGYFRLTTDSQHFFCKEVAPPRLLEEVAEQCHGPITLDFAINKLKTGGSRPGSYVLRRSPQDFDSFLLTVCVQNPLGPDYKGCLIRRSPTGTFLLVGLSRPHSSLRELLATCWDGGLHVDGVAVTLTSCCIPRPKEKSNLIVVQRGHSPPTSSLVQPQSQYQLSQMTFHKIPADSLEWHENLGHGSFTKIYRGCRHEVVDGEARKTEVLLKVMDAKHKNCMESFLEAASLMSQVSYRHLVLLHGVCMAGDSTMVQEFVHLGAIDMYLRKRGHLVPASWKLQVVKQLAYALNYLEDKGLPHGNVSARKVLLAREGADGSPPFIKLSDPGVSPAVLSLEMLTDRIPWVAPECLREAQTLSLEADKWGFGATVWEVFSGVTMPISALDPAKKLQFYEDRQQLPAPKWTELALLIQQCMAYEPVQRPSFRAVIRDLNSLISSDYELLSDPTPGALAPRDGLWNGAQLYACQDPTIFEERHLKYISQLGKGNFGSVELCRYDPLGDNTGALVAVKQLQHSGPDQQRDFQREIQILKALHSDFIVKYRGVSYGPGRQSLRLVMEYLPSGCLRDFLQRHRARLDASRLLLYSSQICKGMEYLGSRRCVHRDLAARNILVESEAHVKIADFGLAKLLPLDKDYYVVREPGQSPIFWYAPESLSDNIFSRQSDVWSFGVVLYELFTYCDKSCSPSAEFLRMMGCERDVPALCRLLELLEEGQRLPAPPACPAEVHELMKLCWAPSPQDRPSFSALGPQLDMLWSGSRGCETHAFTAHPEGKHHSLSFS
Description: Compounds were screened for their ability to inhibit JAK using the assay shown below. Reactions were carried out in a kinase buffer containing 100 mM HEPES (pH 7.4), 1 mM DTT, 10 mM MgCl2, 25 mM NaCl, and 0.01% BSA.
Substrate concentrations in the assay were 5 μM ATP (200 μCi/μmole ATP) and 1 μM poly(Glu)4Tyr. Reactions were carried out at 25° C. and 1 nM JAK-3.
To each well of a 96 well polycarbonate plate was added 1.5 μL of a candidate JAK-3 inhibitor along with 50 μL of kinase buffer containing 2 μM poly(Glu)4Tyr and 10 μM ATP. This was then mixed and 50 μL of kinase buffer containing 2 nM JAK-3 enzyme was added to start the reaction. After 20 minutes at room temperature (25° C.), the reaction was stopped with 50 μL of 20% trichloroacetic acid (TCA) that also contained 0.4 mM ATP. The entire contents of each well were then transferred to a 96 well glass fiber filter plate using a TomTek Cell Harvester. After washing, 60 μL of scintillation fluid was added and ^33P incorporation detected on a Perkin Elmer TopCount. After removing the mean background values for all of the data points, the data were fit using Prism software to obtain a Ki value (app).

JAK-2, sequence (O60674 whole entry): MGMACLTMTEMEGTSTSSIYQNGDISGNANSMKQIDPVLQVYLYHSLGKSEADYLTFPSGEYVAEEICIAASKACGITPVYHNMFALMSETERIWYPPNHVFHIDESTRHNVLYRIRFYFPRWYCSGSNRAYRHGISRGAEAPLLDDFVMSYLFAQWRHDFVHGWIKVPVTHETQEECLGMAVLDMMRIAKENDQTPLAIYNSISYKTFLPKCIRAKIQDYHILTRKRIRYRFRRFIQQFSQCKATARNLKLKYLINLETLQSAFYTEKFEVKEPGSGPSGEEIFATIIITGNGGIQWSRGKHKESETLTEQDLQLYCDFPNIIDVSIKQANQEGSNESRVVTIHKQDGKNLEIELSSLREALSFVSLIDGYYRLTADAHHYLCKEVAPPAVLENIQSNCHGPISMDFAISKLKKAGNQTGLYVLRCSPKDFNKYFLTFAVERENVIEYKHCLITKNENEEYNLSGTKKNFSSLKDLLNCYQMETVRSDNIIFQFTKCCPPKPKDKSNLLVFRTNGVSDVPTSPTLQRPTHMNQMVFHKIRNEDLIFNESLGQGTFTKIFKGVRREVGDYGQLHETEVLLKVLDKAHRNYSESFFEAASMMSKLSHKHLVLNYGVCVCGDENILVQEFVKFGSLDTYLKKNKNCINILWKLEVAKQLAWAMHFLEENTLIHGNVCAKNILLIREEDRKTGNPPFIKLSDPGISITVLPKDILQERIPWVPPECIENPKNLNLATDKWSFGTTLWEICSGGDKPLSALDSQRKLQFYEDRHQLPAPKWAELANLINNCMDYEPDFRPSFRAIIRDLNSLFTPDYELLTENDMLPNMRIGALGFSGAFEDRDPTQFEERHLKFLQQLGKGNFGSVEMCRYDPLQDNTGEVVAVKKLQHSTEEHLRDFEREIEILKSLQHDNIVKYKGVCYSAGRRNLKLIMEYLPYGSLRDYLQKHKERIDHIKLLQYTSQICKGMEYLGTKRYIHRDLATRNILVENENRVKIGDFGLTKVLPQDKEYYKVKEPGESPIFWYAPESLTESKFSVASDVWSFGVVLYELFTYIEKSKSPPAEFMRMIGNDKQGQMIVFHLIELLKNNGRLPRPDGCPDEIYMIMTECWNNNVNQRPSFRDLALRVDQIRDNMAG

SMILES | Ki (JAK-2) | Ki (JAK-3)
Oc1ccc(C2Nc3ccccc3-c3ccnc4[nH]cc2c34)cc1OC(F)(F)F (stereo not shown) [Compound 114] | 0.25 to 2.5 µM | 0.25 to 2.5 µM
Oc1c(F)cc(C2Nc3ccccc3-c3ncnc4[nH]cc2c34)cc1F (stereo not shown) [Compound 115] | < 0.25 µM | ≤ 0.25 µM
Cn1cc2c3c(ncnc31)-c1ccccc1NC2c1ccc(O)c(F)c1 (stereo not shown) [Compound 117] | < 0.25 µM | ≤ 0.25 µM
c1ccc2c(c1)NC(c1ccc(-n3ccnc3)cc1)c1c[nH]c3nccc-2c13 (stereo not shown) [Compound 119] | 0.25 to 2.5 µM | 0.25 to 2.5 µM
c1ccc2c(c1)NC(c1ccc(-n3cncn3)cc1)c1c[nH]c3nccc-2c13 (stereo not shown) [Compound 120] | > 2.5 µM | > 2.5 µM
CS(=O)(=O)c1ccc(C2Nc3ccccc3-c3ccnc4[nH]cc2c34)cc1 (stereo not shown) [Compound 121] | > 2.5 µM | > 2.5 µM
[O-][n+]1ccc(C2Nc3ccccc3-c3ccnc4[nH]cc2c34)cc1 (stereo not shown) [Compound 122] | > 2.5 µM | > 2.5 µM
Cc1cc(C2Nc3ccccc3-c3ccnc4[nH]cc2c34)sc1C (stereo not shown) [Compound 124] | 0.25 to 2.5 µM | 0.25 to 2.5 µM
COc1ccc(C2NC(=O)c3ccccc3-c3ccnc4[nH]cc2c34)cc1 (stereo not shown) [Compound 126] | > 2.5 µM | > 2.5 µM
O=C1NC(c2ccc(O)cc2F)c2c[nH]c3nccc(c23)-c2ccccc21 (stereo not shown) [Compound 127] | < 0.25 µM | 0.25 to 2.5 µM
OB(O)c1ccc(C2Nc3ccccc3-c3ccnc4[nH]cc2c34)cc1 (stereo not shown) [Compound 128] | < 0.25 µM | ≤ 0.25 µM
COc1ccc(C2NC(=O)c3ccccc3-c3ccnc4[nH]cc2c34)cc1C (stereo not shown) [Compound 129] | > 2.5 µM | > 2.5 µM
CCOC(=O)C1(c2ccc(OC)c(F)c2)Nc2ccccc2-c2ccnc3[nH]cc1c23 (stereo not shown) [Compound 130] | < 0.25 µM | 0.25 to 2.5 µM
Clc1ccccc1COc1cccc(C2Nc3ccccc3-c3ccnc4[nH]cc2c34)c1 (stereo not shown) [Compound 131] | < 0.25 µM | 0.25 to 2.5 µM
Cc1ccc(COc2ccccc2C2Nc3ccccc3-c3ccnc4[nH]cc2c34)cc1 (stereo not shown) [Compound 132] | > 2.5 µM | > 2.5 µM
Cc1cc(O)ccc1C1Nc2ccccc2-c2ccnc3[nH]cc1c23 (stereo not shown) [Compound 133] | < 0.25 µM | ≤ 0.25 µM
FC(F)(F)Oc1ccc(C2Nc3ccccc3-c3ccnc4[nH]cc2c34)cc1 (stereo not shown) [Compound 134] | 0.25 to 2.5 µM | 0.25 to 2.5 µM
COc1ccc(C2Nc3ccccc3-c3ccnc4[nH]cc2c34)cc1 (stereo not shown) [Compound 135] | < 0.25 µM | ≤ 0.25 µM
FC(F)(F)c1ccc(C2Nc3ccccc3-c3ccnc4[nH]cc2c34)cc1 (stereo not shown) [Compound 136] | > 2.5 µM | > 2.5 µM
Cc1ccc(C2Nc3ccccc3-c3ccnc4[nH]cc2c34)cc1 (stereo not shown) [Compound 137] | 0.25 to 2.5 µM | > 2.5 µM
Cc1cc(C2Nc3ccccc3-c3ccnc4[nH]cc2c34)ccc1F (stereo not shown) [Compound 138] | > 2.5 µM | > 2.5 µM

SMILES | Ki (JAK-2) | Ki (JAK-3)
O=[N+]([O-])c1cc(C2Nc3ccccc3-c3ccnc4[nH]cc2c34)ccc1O (stereo not shown) [Compound 139] | 0.25 to 2.5 µM | 0.25 to 2.5 µM
Cc1cc(C2Nc3ccccc3-c3ccnc4[nH]cc2c34)ccc1O (stereo not shown) [Compound 140] | < 0.25 µM | ≤ 0.25 µM
c1ccc2c(c1)NC(c1ccc3c(c1)CCO3)c1c[nH]c3nccc-2c13 (stereo not shown) [Compound 141] | < 0.25 µM | 0.25 to 2.5 µM
COc1ccc(C2Nc3ccccc3-c3ccnc4[nH]cc2c34)c(OC)c1 (stereo not shown) [Compound 142] | > 2.5 µM | > 2.5 µM
c1ccc(-c2onc3ccc(C4Nc5ccccc5-c5ccnc6[nH]cc4c56)cc23)cc1 (stereo not shown) [Compound 143] | > 2.5 µM | > 2.5 µM
c1ccc2c(c1)NC(c1ccc3nsnc3c1)c1c[nH]c3nccc-2c13 (stereo not shown) [Compound 144] | 0.25 to 2.5 µM | > 2.5 µM
CC(C)Oc1ccc(C2Nc3ccccc3-c3ccnc4[nH]cc2c34)cc1 (stereo not shown) [Compound 145] | < 0.25 µM | 0.25 to 2.5 µM
CCCOc1ccc(C2Nc3ccccc3-c3ccnc4[nH]cc2c34)cc1 (stereo not shown) [Compound 146] | < 0.25 µM | ≤ 0.25 µM
c1ccc(Oc2ccc(C3Nc4ccccc4-c4ccnc5[nH]cc3c45)cc2)cc1 (stereo not shown) [Compound 147] | > 2.5 µM | > 2.5 µM
CCOc1cc(C2Nc3ccccc3-c3ccnc4[nH]cc2c34)ccc1O (stereo not shown) [Compound 148] | 0.25 to 2.5 µM | 0.25 to 2.5 µM
O=C1Nc2ccccc2-c2ccnc3[nH]cc(c23)C1c1ccc(O)c(F)c1 (stereo not shown) [Compound 150] | < 0.25 µM | ≤ 0.25 µM
O=C1NC(c2ccc(Br)cc2)c2c[nH]c3nccc(c23)-c2ccccc21 (stereo not shown) [Compound 152] | > 2.5 µM | > 2.5 µM
Brc1ccc(C2Nc3ccccc3-c3ccnc4[nH]cc2c34)cc1 (stereo not shown) [Compound 153] | > 2.5 µM | > 2.5 µM
N#CCC1Nc2ccccc2-c2ccnc3[nH]cc1c23 (stereo not shown) [Compound 155] | < 0.25 µM | ≤ 0.25 µM
CCN(CC)CCOc1ccc(C2Nc3ccccc3-c3ccnc4[nH]cc2c34)cc1 (stereo not shown) [Compound 157] | < 0.25 µM | ≤ 0.25 µM
O=C1Nc2ccccc2-c2ncnc3[nH]cc(c23)C1c1ccc(O)cc1 (stereo not shown) [Compound 158] | < 0.25 µM | ≤ 0.25 µM
CN1C(=O)C(c2ccc(O)cc2)c2c[nH]c3ncnc(c23)-c2ccccc21 (stereo not shown) [Compound 159] | < 0.25 µM | ≤ 0.25 µM
O=C1Nc2ccccc2-c2ncnc3[nH]cc(c23)C1c1ccc(O)c(F)c1 (stereo not shown) [Compound 160] | < 0.25 µM | ≤ 0.25 µM
Cc1ccc(C2C(=O)Nc3ccccc3-c3ncnc4[nH]cc2c34)cc1 (stereo not shown) [Compound 161] | < 0.25 µM | 0.25 to 2.5 µM
CN(C(=O)Oc1ccc(C2Nc3ccccc3-c3ccnc4[nH]cc2c34)cc1F)c1ccccc1 (stereo not shown) [Compound 162] | 0.25 to 2.5 µM | 0.25 to 2.5 µM
